How the values were obtained:
MIAPaCa-2 = test: MTS assay, relative survival rate with roseoflavin; assay type: cell-based, human; settings: RoF 0.1 to 10 μM, 24, 48 or 72 hours, ratio to solvent control at 72 hours
Experimental: (§1) Human pancreatic cancer cells were treated with roseoflavin (RoF), and a relative survival rate was calculated assuming that mitochondrial respiratory chain activity corresponded to the survival rate.
(§2) Human pancreatic cancer cell lines, MIAPaCa-2, PANC-1, and Capan-1 were used for performing MTS assay with RoF. All the cell lines were obtained from ATCC. Each of the cell lines was cultured with the following medium in the presence of 5% CO2 at 37° C. • MIAPaCa-2: Dulbecco's Modified Eagle's Medium (Nakalai Tesque) supplemented with 10% fetal bovine serum (Gibco) and 1% penicillin-streptomycin (Nakalai Tesque) • PANC-1: RPMI 1640 medium (Nakalai Tesque) supplemented with 10% fetal bovine serum (Gibco) and 1% penicillin-streptomycin (Nakalai Tesque) • Capan-1: IMDM medium (Iscove's Modified Dulbecco's Medium) (Nakalai Tesque) supplemented with 20% fetal bovine serum (Gibco) and 1% penicillin-streptomycin (Nakalai Tesque)
(§3) Roseoflavin (RoF) was prepared to 0 μM (DMSO alone), 0.1 mM, 0.3 mM, 1 mM, 3 mM, and 10 mM, and the resultants were respectively diluted with the medium by 1000 times to obtain agent solutions (RoF final concentration: 0 μM, 0.1 μM, 0.3 μM, 1 μM, 3 μM and […]).
(§4) In a 96 well plate, MIAPaCa-2 was seeded at 500 cells/well, PANC-1 was seeded at 2,000 cells/well, and Capan-1 was seeded at 10,000 cells/well (in 100 μL of the medium). After these were cultured for 1 day, the RoF agent solution at each concentration was added to the cells in the 96 well plate in an amount of 10 μL each (final concentration of DMSO: 0.1%). Each combination was tested in 3 wells. After the addition of the agent solution, the resultant was cultured in the presence of 5% CO2 at 37° C. for 24, 48 or 72 hours, and a cell survival rate was measured with MTS Assay (Cell Titer 96®, Promega). The survival rate was expressed as a ratio to that of the control (solvent alone) cultured for 72 hours.

PANC-1 = test: MTS assay, relative survival rate with roseoflavin; assay type: cell-based, human; settings: RoF 0.1 to 10 μM, 24, 48 or 72 hours, ratio to solvent control at 72 hours
Experimental: as §1, §2, §3, §4

Capan-1 [1] = test: MTS assay, relative survival rate with roseoflavin; assay type: cell-based, human; settings: RoF 0.1 to 10 μM, 24, 48 or 72 hours, ratio to solvent control at 72 hours
Experimental: as §1, §2, §3, §4

AsPC-1 = test: Spheroid formation in three-dimensional methylcellulose culture; assay type: cell-based, human; settings: 10 μM RoF, 1 nM Tr, day 21 of culture
Experimental: (§5) The pancreatic cancer cell lines (AsPC-1 and Capan-1) having 4-hit mutation were three-dimensionally cultured in methylcellulose-containing media.
(§6) In a 24 well plate (upper layer: 1.8% methylcellulose, lower layer: 0.48% agarose), AsPC-1 was seeded at 5×10^3 cells/well (in 100 μL of the medium). After culturing for 1 day (day 1), DMSO (control), 10 μM roseoflavin (RoF), 1 nM trametinib (Tr), or 10 μM RoF+1 nM Tr was respectively added to the 24 well plate (final concentration of DMSO: 0.1%). After adding the agent solution, the resultant was cultured in the presence of 5% CO2 at 37° C., and a culture fluid was added on day 14. The resultant was further cultured, and each group was photographed on day 21 to measure the size and the number of spheroids. It is noted that the following media were used for culturing the respective cell lines: • AsPC-1: RPMI 1640 medium (Nakalai Tesque) supplemented with 10% fetal bovine serum (Gibco) and 1% penicillin-streptomycin (Nakalai Tesque) • Capan-1: IMDM medium (Iscove's Modified Dulbecco's Medium) (Nakalai Tesque) supplemented with 20% fetal bovine serum (Gibco) and 1% penicillin-streptomycin (Nakalai Tesque)

Capan-1 [2] = test: as above; assay type: cell-based, human; settings: 10 μM RoF, 1 nM Tr, day 21 of culture
Experimental: as §5, §6

RF pathway = test: Liquid chromatography mass spectrometry of RoF, RF, FMN and FAD within the cells; assay type: cell-based, human; settings: MIAPaCa-2, PANC-1 and Capan-1; 10 μM RoF, 48 hours; vs DMSO control
4-hit flies (non-GFP) = test: Survival rate of 4-hit flies raised on agent diet; assay type: in vivo, Drosophila; settings: in diet: 0.5 μM trametinib, 50 μM roseoflavin; raised at 25° C. for 13 days
Experimental: Roseoflavin and trametinib were dissolved in DMSO (Sigma) to be stored at −20° C.
Agar (Wako), brewers' yeast (MPBio), yeast extract (Sigma Aldrich), Bacto Casitone (BD), sucrose (Wako), glucose (Wako), MgCl2 (Wako), CaCl2) (Wako), propionic acid (Wako), Mold Inhibitor (10% methyl-4-hydroxy benzoate in 95% ethanol: Wako) were dissolved in ultrapure water to produce a standard diet. While this was being warmed at 50° C., an agent (trametinib alone, or a combination of roseoflavin and trametinib) dissolved in DMSO was added thereto to be mixed, and the resultant was cooled to prepare an agent diet. Final concentrations in the diet of the respective compounds were set to 0.5 μM for trametinib, and 50 μM for roseoflavin.
The UAS-RasG12D, UAS-p53 shRNA, UAS-CycE, UAS-Med shRNA fly produced in Example 1 was crossbred with a Ser-gal4 fly (Bloomington Drosophila Stock Center), and the parent flies were caused to lay eggs for 2 days on the standard diet or the agent diet, and thus, 20 to 50 eggs per vial, of Ser-gal4; UAS-RasG12D, UAS-p53 shRNA, UAS-CycE, UAS-Med shRNA 4-hit flies (non-GFP) were obtained. These eggs were raised at 25° C. for 13 days, and survival rate of the 4-hit flies (non-GFP) raised on each diet was calculated by dividing the number of eclosed individuals by the total number of pupae.

## Cc1cc2nc3c(=O)[nH]c(=O)nc-3n(C[C@H](O)[C@H](O)[C@H](O)CO)c2cc1N(C)C [roseoflavin]
MIAPaCa-2
  relative survival rate (mitochondrial respiratory chain activity): deteriorated mitochondrial respiratory chain activity in a dose dependent manner to decrease the relative survival rate
PANC-1
  relative survival rate (mitochondrial respiratory chain activity): deteriorated mitochondrial respiratory chain activity in a dose dependent manner to decrease the relative survival rate
Capan-1 [1]
  relative survival rate (mitochondrial respiratory chain activity): deteriorated mitochondrial respiratory chain activity in a dose dependent manner to decrease the relative survival rate
AsPC-1
  spheroid formation, spheroids of 0.1 to 0.2 mm and larger than 0.2 mm: spheroid formation was suppressed
Capan-1 [2]
  number of spheroids of 0.1 mm or smaller: increased
  spheroid formation, spheroids of 0.1 to 0.2 mm and larger than 0.2 mm: spheroid formation was suppressed
RF pathway
  amount of FAD (flavin adenine dinucleotide) within the cells: smaller than those in the control
  amount of FMN (flavin mononucleotide) within the cells: smaller than those in the control
  amount of RF (riboflavin) within the cells: smaller than those in the control

## CC(=O)Nc1cccc(-n2c(=O)n(C3CC3)c(=O)c3c(Nc4ccc(I)cc4F)n(C)c(=O)c(C)c32)c1 [trametinib]
4-hit flies (non-GFP)
  improvement of survival rate of 4-hit flies (eclosed individuals / total pupae): about 10%
